According to patent publication US10918645B2 (LIFEARC, priority 2016, dated 2021):

Columns and labels:
Format in all cases: biochemical
Settings in all cases: 1 μM inhibitor concentration
[1] = target: ERK1 (Homo sapiens (Human), UniProt P27361); test: ERK1 kinase selectivity assay
Description: 5-20 mU of ERK1 (diluted in 50 mM Tris (pH 7.5), 0.1 mM EGTA, 1 mg/ml BSA, 0.1%, b-Mercaptoethanol) is assayed against MBP in a final volume of 25.5 μl containing 50 mM Tris (pH 7.5), 0.1 mM EGTA, 0.1%, b-Mercaptoethanol, 0.33 mg/ml MBP, 10 mM magnesium acetate and 0.005 mM [33P-g-ATP](500-1000 cpm/pmole) and incubated for 30 mins at room temperature. Assays are stopped by addition of 5 μl of 0.5M (3%) orthophosphoric acid. Assays are harvested onto P81 Unifilter plates using a wash buffer of 50 mM orthophosphoric acid.

[2] = target: JNK1 (Homo sapiens (Human), UniProt P45983); test: JNK1 kinase selectivity assay
Description: JNK1a1/SAPK1c (5-20 mU diluted in 50 mM Tris pH 7.5, 0.1 mM EGTA, 1 mg/ml BSA, 0.1% b-mercaptoethanol) is assayed against ATF2 (activating transcription factor in a final volume of 25.5 μl in 50 mM Tris pH 7.5, 0.1 mM EGTA, 0.1% b-Mercaptoethanol, ATF2 (3 μM), 10 mM magnesium acetate and 0.02 mM [33P-g-ATP] (500-1000 cpm/pmole) and incubated for 30 min at room temperature. Assays are stopped by addition of 5 μl of 0.5 M (3%) orthophosphoric acid and then harvested onto P81 Unifilter plates with a wash buffer of 50 mM orthophosphoric acid.

[3] = target: RSK2 (Homo sapiens (Human), UniProt P51812); test: RSK2 kinase selectivity assay
Description: MAPKAP-K1b (5-20 mU diluted in 20 mM MOPS pH 7.5, 1 mM EDTA, 0.01% Brij35, 5% glycerol, 0.1% b-mercaptoethanol, 1 mg/ml BSA) is assayed against substrate peptide ([…]) in a final volume of […] containing 50 mM Na-b-glycerophosphate (pH 7.5), 0.5 mM EDTA, 30 μM substrate peptide, 10 mM magnesium acetate and 0.05 mM [33P-g-ATP] (50-1000 cpm/pmole) and incubated for 30 min at room temperature. Assays are stopped by addition of 5 μl of 0.5 M (3%) orthophosphoric acid and then harvested onto P81 Unifilter plates with a wash buffer of 50 mM orthophosphoric acid.

[4] = target: MNK1 (Homo sapiens (Human), UniProt Q9BUB5); test: MNK1 kinase selectivity assay
Description: 5-20 mU of MNK1 (diluted in 50 mM Tris (pH 7.5), 0.1 mM EGTA, 1 mg/ml BSA, 0.1%, b-Mercaptoethanol) is assayed against substrate peptide (eIF4E) in a final volume of 25.5p1 containing 50 mM Tris (pH 7.5), 0.1 mM EGTA, 0.1%, b-Mercaptoethanol, 0.5 mg/ml substrate peptide, 10 mM magnesium acetate and 0.05 mM [33P-g-ATP](500-1000 cpm/pmole) and incubated for 30 mins at room temperature. Assays are stopped by addition of 5p1 of 0.5M (3%) orthophosphoric acid. Assays are harvested onto P81 Unifilter plates using a wash buffer of 50 mM orthophosphoric acid.

[5] = target: NEK2a (Homo sapiens (Human), UniProt P51955); test: NEK2a kinase selectivity assay
Description: 5-20 mU of NEK2a (diluted in 50 mM Tris (pH 7.5), 0.1 mM EGTA, 1 mg/ml BSA, 0.1%, b-Mercaptoethanol) is assayed against NEK2a peptide ([…]) in a final volume of 25.5 μl containing 50 mM Tris (pH 7.5), 0.1 mM EGTA, 0.01% Brij, 0.1%, b-Mercaptoethanol, 300 μM NEK2a peptide, 10 mM magnesium acetate and 0.05 mM [33P-g-ATP](500-1000 cpm/pmole) and incubated for 30 mins at room temperature. Assays are stopped by addition of 5 μl of 0.5M (3%) orthophosphoric acid. Assays are harvested onto P81 Unifilter plates using a wash buffer of 50 mM orthophosphoric acid.

[6] = target: TAK1 (Homo sapiens (Human), UniProt O43318); test: TAK1 kinase selectivity assay
Description: TAK1 (5-20 mU diluted in 50 mM Tris pH 7.5, 0.1 mM EGTA, 1 mg/ml BSA) is assayed against a substrate peptide ([…]) in a final volume of 25.5 μl containing 50 mM Tris pH 7.5, 0.1 mM EGTA, 0.1% β-Mercaptoethanol, 300 μM substrate peptide, 10 mM magnesium acetate, 0.5 mM MnCl and 0.005 mM [33P-γ-ATP](50-1000 cpm/pmole) and incubated for 30 min at room temperature. Assays are stopped by addition of 5 μl of 0.5 M (3%) orthophosphoric acid and then harvested onto P81 Unifilter plates with a wash buffer of 50 mM orthophosphoric acid.

[7] = target: IRAK4 (Homo sapiens (Human), UniProt Q9NWZ3); test: IRAK4 kinase selectivity assay
Description: IRAK4 (5-20 mU diluted in 50 mM Tris pH 7.5, 0.1 mM EGTA, 0.1% 0-mercaptoethanol, 1 mg/ml BSA) is assayed against MBP in a final volume of 25.5 μl containing 50 mM Tris pH 7.5, 0.1 mM EGTA, 0.33 mg/ml MBP, 10 mM magnesium acetate and 0.02 mM [33P-γ-ATP] (50-1000 cpm/pmole) and incubated for 30 min at room temperature. Assays are stopped by addition of 5 μl of 0.5 M (3%) orthophosphoric acid and then harvested onto P81 Unifilter plates with a wash buffer of 50 mM orthophosphoric acid.

[8] = target: Src (Homo sapiens (Human), UniProt P12931); test: Src kinase selectivity assay
Description: Src (5-20 mU diluted in 50 mM Tris pH 7.5, 0.1 mM EGTA, 0.1% b-mercaptoethanol, 1 mg/ml BSA) is assayed against a substrate peptide ([…]) in a final volume of 25.5 μl containing 50 mM Tris pH 7.5, 0.05% b-mercaptoethanol, 300 μM substrate peptide, 10 mM magnesium acetate and 0.05 mM [33P-g-ATP] (50-1000 cpm/pmole) and incubated for 30 min at room temperature. Assays are stopped by addition of 5 μl of 0.5 M (3%) orthophosphoric acid and then harvested onto P81 Unifilter plates with a wash buffer of 50 mM orthophosphoric acid.

MNK1, sequence (Q9BUB5 whole entry, species assumed): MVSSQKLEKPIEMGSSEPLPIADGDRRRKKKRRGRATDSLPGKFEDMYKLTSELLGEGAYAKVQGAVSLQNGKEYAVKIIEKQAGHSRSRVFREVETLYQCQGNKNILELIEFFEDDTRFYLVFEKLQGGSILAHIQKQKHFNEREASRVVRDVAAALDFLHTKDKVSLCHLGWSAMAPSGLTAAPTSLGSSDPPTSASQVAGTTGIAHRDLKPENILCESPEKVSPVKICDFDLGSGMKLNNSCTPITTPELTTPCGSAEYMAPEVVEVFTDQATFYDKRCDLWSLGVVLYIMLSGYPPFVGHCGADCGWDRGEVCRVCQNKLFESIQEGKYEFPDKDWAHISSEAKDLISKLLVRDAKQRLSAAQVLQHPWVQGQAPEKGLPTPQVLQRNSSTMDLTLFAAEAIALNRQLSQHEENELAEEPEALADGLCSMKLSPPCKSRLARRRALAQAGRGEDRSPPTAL
IRAK4, sequence (Q9NWZ3 whole entry, species assumed): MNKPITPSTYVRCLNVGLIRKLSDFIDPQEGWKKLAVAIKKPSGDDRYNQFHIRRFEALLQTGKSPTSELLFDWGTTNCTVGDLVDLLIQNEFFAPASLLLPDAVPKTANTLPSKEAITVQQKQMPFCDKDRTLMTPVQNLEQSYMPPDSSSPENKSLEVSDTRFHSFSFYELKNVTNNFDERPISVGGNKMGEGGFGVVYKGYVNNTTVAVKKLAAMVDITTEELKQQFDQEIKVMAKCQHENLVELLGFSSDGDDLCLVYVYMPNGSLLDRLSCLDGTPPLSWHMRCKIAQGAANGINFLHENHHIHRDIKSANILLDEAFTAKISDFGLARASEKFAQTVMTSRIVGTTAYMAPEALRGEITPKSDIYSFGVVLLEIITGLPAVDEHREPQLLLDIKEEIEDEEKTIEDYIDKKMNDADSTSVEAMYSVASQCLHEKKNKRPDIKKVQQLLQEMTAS
RSK2, sequence (P51812 whole entry, species assumed): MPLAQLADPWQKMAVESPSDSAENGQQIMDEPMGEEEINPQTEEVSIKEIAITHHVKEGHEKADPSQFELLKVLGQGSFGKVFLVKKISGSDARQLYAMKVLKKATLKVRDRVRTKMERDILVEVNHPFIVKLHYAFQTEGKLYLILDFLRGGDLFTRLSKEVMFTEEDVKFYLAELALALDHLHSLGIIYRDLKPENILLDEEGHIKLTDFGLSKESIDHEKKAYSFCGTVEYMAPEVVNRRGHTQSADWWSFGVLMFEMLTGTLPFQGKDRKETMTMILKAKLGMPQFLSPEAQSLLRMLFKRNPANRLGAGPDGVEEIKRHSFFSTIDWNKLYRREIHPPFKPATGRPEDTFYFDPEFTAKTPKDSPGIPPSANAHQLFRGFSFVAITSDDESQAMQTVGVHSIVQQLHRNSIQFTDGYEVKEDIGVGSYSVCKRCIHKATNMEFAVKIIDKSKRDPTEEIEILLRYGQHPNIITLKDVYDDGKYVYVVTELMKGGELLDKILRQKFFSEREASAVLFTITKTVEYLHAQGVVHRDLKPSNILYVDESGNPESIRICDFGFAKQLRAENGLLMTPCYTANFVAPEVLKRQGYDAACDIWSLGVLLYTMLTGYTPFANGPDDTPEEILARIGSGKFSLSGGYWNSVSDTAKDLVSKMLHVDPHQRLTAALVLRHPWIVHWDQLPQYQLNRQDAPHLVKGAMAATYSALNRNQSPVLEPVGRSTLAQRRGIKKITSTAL
JNK1, sequence (P45983 other isoform, or with tags, fused parts or gaps, species assumed): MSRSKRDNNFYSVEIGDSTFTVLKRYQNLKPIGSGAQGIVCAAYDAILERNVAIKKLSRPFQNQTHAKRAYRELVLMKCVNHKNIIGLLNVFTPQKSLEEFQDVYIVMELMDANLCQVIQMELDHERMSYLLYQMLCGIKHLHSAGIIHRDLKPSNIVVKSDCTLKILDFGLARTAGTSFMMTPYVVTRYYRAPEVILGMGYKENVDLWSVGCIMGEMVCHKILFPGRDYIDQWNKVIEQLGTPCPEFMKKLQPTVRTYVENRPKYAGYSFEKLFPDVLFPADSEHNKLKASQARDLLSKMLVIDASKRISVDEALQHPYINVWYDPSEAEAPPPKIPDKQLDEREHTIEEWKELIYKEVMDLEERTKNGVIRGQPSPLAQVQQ
NEK2a, sequence (P51955 whole entry, species assumed): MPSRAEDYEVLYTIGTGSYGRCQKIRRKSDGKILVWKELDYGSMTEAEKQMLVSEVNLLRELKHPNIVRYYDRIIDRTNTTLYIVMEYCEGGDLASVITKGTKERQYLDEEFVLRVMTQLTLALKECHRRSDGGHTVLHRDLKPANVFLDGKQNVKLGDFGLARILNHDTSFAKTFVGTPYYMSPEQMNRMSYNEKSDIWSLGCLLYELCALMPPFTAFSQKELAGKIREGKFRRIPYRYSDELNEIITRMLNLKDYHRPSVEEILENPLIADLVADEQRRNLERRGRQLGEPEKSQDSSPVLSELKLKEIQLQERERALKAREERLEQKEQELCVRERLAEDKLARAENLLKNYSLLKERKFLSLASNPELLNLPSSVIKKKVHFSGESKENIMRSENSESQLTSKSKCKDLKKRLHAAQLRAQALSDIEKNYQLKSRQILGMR
Src, sequence (P12931 whole entry, looked up, species assumed): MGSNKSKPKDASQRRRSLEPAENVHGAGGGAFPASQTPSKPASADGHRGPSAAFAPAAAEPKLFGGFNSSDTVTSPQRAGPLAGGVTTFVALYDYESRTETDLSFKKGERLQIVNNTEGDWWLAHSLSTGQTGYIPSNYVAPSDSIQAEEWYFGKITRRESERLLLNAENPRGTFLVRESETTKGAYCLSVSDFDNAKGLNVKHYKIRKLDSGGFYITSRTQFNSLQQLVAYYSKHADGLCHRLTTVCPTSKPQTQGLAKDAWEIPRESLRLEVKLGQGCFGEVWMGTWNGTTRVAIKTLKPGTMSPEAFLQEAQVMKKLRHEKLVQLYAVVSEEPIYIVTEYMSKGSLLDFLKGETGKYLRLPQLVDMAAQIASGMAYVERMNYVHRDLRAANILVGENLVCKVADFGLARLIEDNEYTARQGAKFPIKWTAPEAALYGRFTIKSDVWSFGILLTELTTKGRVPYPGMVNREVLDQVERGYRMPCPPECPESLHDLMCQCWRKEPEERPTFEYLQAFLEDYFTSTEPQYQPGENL
TAK1, sequence (O43318 1-303): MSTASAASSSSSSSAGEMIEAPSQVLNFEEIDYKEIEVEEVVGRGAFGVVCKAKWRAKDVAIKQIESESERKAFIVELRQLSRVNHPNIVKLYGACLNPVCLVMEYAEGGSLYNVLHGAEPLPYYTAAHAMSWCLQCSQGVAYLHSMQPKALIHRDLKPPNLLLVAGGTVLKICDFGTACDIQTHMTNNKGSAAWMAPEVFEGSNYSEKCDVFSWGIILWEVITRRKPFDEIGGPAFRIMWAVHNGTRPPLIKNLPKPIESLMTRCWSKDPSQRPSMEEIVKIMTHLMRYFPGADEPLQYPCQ
ERK1, sequence (P27361 whole entry, species assumed): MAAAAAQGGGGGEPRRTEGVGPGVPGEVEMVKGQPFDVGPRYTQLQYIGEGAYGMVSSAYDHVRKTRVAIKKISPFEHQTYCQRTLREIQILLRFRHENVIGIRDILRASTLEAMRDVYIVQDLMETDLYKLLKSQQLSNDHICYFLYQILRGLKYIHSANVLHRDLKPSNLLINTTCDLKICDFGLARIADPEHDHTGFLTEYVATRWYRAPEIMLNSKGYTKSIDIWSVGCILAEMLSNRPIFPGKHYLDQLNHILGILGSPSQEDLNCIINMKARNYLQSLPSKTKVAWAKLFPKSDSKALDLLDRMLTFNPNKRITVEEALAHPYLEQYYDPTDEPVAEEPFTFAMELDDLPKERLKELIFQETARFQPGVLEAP

| Structure (SMILES) | percentage inhibition of ERK1 [1] | percentage inhibition of JNK1 [2] | percentage inhibition of RSK2 [3] | percentage inhibition of MNK1 [4] | percentage inhibition of NEK2a [5] | percentage inhibition of TAK1 [6] | percentage inhibition of IRAK4 [7] | percentage inhibition of Src [8] |
| --- | --- | --- | --- | --- | --- | --- | --- | --- |
| c1cc2[nH]nc3c2c(n1)N(C1CCC1)CCC3 [Example 22, 6-cyclobutyl-6,7,8,9-tetrahydro-2H-1,2,5,6-tetraazabenzo[cd]azulene] | 0 percentage | 0 percentage | 8 percentage | 0 percentage | 13 percentage | 64 percentage | 13 percentage | 13 percentage |
| c1cc2[nH]nc3c2c(n1)N(C1CCCC1)CCC3 [Example 23, 6-cyclopentyl-6,7,8,9-tetrahydro-2H-1,2,5,6-tetraazabenzo[cd]azulene] | 0 percentage | 0 percentage | 5 percentage | 0 percentage | 8 percentage | 49 percentage | 0 percentage | 0 percentage |
| c1cc2[nH]nc3c2c(n1)N(C1CCOCC1)CCC3 [Example 29, 6-(tetrahydro-2H-pyran-4-yl)-6,7,8,9-tetrahydro-2H-1,2,5,6-tetraazabenzo[cd]azulene] | 0 percentage | 0 percentage | 0 percentage | 0 percentage | 0 percentage | 65 percentage | 15 percentage | 0 percentage |
| CN1CCC(N2Cc3ccccc3-c3n[nH]c4ccnc2c34)CC1 [Example 55] | 4 percentage | 49 percentage | 21 percentage | 50 percentage | 14 percentage | 64 percentage | 9 percentage | 1 percentage |
| CC(C)n1ncc2c1CN(C1CCN(C)CC1)c1nccc3[nH]nc-2c13 [Example 68] | 11 percentage | 48 percentage | 54 percentage | 1 percentage | 0 percentage | 36 percentage | 14 percentage | 0 percentage |
